The results in this text go back to the Kinase Knowledgebase extract (Sharma et al. 2016).

The structures appear in SMILES notation. Where only a bound is given, the exact number is not on record here.

The target in this assay is ROCK2 (human) (UniProt O75116). The assay can be described thus: Assessment of ROCK2 Kinase Activity.
ROCK2 (human), sequence (O75116 whole entry, looked up): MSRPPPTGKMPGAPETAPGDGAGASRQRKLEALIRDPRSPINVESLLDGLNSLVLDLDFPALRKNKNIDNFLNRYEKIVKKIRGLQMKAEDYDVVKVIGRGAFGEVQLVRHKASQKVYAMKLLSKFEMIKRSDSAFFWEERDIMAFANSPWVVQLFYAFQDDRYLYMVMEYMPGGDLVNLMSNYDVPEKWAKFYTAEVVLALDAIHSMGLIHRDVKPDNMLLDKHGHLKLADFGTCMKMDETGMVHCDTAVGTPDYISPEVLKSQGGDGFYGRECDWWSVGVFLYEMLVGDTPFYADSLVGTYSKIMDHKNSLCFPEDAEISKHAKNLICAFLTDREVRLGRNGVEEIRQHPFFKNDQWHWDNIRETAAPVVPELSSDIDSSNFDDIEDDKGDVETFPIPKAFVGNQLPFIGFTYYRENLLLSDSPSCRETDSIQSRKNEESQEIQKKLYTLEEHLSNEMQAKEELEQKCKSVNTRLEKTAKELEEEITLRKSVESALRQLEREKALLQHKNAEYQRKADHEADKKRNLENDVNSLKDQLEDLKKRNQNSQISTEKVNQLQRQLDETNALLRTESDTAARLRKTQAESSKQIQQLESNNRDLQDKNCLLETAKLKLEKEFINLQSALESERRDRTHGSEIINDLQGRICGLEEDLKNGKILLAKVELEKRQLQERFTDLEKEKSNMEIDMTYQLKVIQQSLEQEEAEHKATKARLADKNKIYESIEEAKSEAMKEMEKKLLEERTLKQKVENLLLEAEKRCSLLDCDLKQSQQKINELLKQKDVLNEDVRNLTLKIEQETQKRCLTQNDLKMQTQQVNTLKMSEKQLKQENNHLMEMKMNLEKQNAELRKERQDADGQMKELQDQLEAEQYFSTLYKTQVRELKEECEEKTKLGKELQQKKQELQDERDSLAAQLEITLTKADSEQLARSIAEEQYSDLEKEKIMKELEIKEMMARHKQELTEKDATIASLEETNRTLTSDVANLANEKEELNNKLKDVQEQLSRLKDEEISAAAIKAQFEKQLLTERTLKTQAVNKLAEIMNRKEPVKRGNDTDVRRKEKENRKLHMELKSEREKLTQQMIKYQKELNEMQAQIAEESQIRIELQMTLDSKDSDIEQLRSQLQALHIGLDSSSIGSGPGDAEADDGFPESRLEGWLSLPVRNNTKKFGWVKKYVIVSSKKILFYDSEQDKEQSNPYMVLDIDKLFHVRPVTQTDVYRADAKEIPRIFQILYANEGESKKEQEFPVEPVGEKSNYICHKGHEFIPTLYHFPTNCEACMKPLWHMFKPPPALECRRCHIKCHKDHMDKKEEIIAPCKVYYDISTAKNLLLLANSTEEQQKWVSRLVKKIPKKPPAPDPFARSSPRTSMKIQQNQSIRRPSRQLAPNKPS

`N[C@@H](Cc1ccc(Cl)cc1)C(=O)N1CCC(Oc2cc3cc[nH]c(=O)c3cc2Cl)CC1` gave an IC50 of at most 1000 nM.
With `O=c1[nH]ccc2cc(OC3CNC3)c(Cl)cc12` the figure was at most 1000 nM.
For `CN(C)CC(=O)N1CCC(Oc2cc3cc[nH]c(=O)c3cc2Cl)CC1` the value was at most 1000 nM; for `Cc1cc2c(=O)[nH]ccc2cc1OC[C@@H]1CCNC1`, at most 1000 nM; for `CCCNC(=O)CN1CCC(Oc2cc3cc[nH]c(=O)c3cc2Cl)CC1`, at most 1000 nM.
Regarding `Cc1cc2c(=O)[nH]ccc2cc1OC1CCCNCC1` (configuration not stated), the IC50 is at most 1000 nM.
`C[C@@H](N)C(=O)N1CCC(Oc2cc3cc[nH]c(=O)c3cc2Cl)CC1` displayed a concentration for half-maximal inhibition (IC50) of at most 1000 nM.
Molecule `Cc1cc2c(=O)[nH]ccc2cc1O[C@H]1CCNC1` registered a half-inhibitory concentration (IC50) of at most 1000 nM.
The molecule `O=c1[nH]ccc2cc(O[C@@H]3CCN(Cc4ccccc4)C3)c(Cl)cc12` registered an IC50 of at most 1000 nM.
For `NCC(=O)N1CCC(Oc2ccc3c(=O)[nH]ccc3c2)CC1` the value was at most 1000 nM; for `O=c1[nH]ccc2cc(OC3CCCNCC3)c(Cl)cc12` (configuration not stated), at most 1000 nM; for `O=C([C@@H]1CCCN1)N1CCC(Oc2cc3cc[nH]c(=O)c3cc2Cl)CC1`, at most 1000 nM.
